The text below walks through data of patent US11939312B2, “Enantiomeric entactogen compositions and their use” (Arcadia Medicine, Inc., priority 2021, dated 2024).

Where two headings read alike, the source gives them in different places.

Data set [1] can be described thus: Calculated human equivalent dose (HED) of the NOAEL. The conditions noted are these: for Human Equivalent Dose (HED): NOAEL (human), total dose / Human Equivalent Dose (HED): neurotoxicology NOAEL (human), total dose: assuming a 60 kg human; for NOAEL: human.
Data set [2] in a line: Maximum recommended starting dose (MRSD). Conditions: expected value.
For data set [3] the following is noted: cited from earlier work.
For data set [4] the following is noted: dog, female and male, p.o.; cited from earlier work.
For data set [5] the following is noted: doses of 100-125 mg; cited from earlier work.
The conditions of data set [6]: rat, p.o., cited from earlier work.
For data set [7] the following is noted: cited from earlier work. This is another data set of the same source.
For data set [8] the following is noted: p.o. in rat (single housing for SR(±)MDMA); cited from earlier work.
For data set [9] the following is noted: rodent models, doses far above allometrically-scaled clinical doses (Curry 2018); cited from earlier work.
The conditions of data set [10]: repeated administration, 50 mg/kg bw, mice (Curry 2018); cited from earlier work.
A short description of data set [11]: Subjective report of R-MDMA HCL (Example 11). The conditions noted are these: oral 250 (±) 10 mg.
Experimental: Purpose: To determine the physiological and subjective effects of the hydrochloride salt of R-MDMA (oral administration, 250 (±) 10 mg), supplemented with acetyl-L-carnitine (ALCAR), alpha lipoic acid (ALA), ascorbate to reduce or prevent neurotoxicity.
[12] abbreviates: brain imaging studies, 100 mg, healthy volunteers.

Turning to `CN[C@@H](C)Cc1ccc2c(c1)OCO2` [S(+)MDMA, (S)-1-(1,3-Benzodioxol-5-yl)-N-methylpropan-2-amine], in data set [1], the “Human Equivalent Dose (HED): NOAEL (human), total dose” value is less than 2080 mg; the “Human Equivalent Dose (HED): neurotoxicology NOAEL (human), total dose” value was 342.9 mg*; the no observed adverse effect level (NOAEL) was 6 mg/kg. In addition, the “Expected MSRD” value in [2] was 150 mg.

On to `CNC(C)Cc1ccc2c(c1)OCO2` (racemic) [racemic MDMA, 3,4-methylenedioxymethamphetamine], for which, in data set [3] (Harris 2002), the “onset of subjective effects” value is on record as “approximately 45 mins”, the “time of peak subjective effects” value was 1.5 to 2 h and the “time to decrease to baseline values” is 5 to 6 h. Besides, in data set [3] (setting [12]), the “duration of subjective effects” value is on record as “approximately 4.5 hours” and the “time of peak subjective effects” value is 1.67 h. Besides, the duration of effects in [3] (one dose) is 4 to 5 h. Further, the “time of peak drug effects” value in data set [3] (patients with PTSD (Mithoefer 2013)) was 2 to 5 h. Moreover, the onset of action in [3] (patients with PTSD, after the initial dose (Mithoefer 2013)) was 45 to 75 min. In addition, in data set [3] (with the booster dose), the duration of effects is 5 to 6 h. In data set [4], the “Neurotoxicology NOAEL” value is on record as 4 mg/kg/week p.o. Besides, in data set [5], the “increase in blood pressure (diastolic)” value was 14.4-25 mmg and the “increase in heart rate” value is listed as 26-30 bpm. In addition, the “Neurotoxicology NOAEL” value in data set [6] (female) is reported as 25 mg/kg/week p.o1. Moreover, the “Neurotoxicology NOAEL” value in [6] (male) was 20 mg/kg/week p.o1. Moreover, in data set [1], the “Human Equivalent Dose (HED): NOAEL (human), total dose” value is 2080 mg and the “Human Equivalent Dose (HED): neurotoxicology NOAEL (human), total dose” value is given as 342.9 mg*. Besides, the “Human Equivalent Dose (HED): NOAEL (human)” value in [1] (calculated from NOAEL) is on record as 34 mg/kg →. In data set [1] (calculated from neurotoxicology NOAEL), the “Human Equivalent Dose (HED): neurotoxicology NOAEL (human)” value is listed as “NOAEL (human): 6 mg/kg”. Also, the “time to peak plasma concentration” value in data set [7] (doses 100-125 mg, humans) was 2 to 3 h. Also, the elimination half-life in [7] (similar for doses 50-125 mg) was 7 to 9 h. Besides, the “No adverse effect level (NOAEL)” value in [8] is “NOAEL: 100 mg/kg”.

As to `CN[C@H](C)Cc1ccc2c(c1)OCO2` [R-MDMA, (R)-1-(1,3-Benzodioxol-5-yl)-N-methyl-propan-2-amine], the temperature fluctuations result in data set [9] was “no significant temperature fluctuations”. In [1], the “Human Equivalent Dose (HED): NOAEL (human), total dose” value is on record as more than 4100 mg; the “Human Equivalent Dose (HED): neurotoxicology NOAEL (human), total dose” value is 450 mg*; the NOAEL was 7.4 mg/kg. The “Expected MSRD” value in data set [2] is listed as >300 mg:. Further, in data set [7] (Fallon 1999, Fitzgerald 1990), the “AUC in comparison to S-MDMA” value is given as “increased AUC” and the “half-life in comparison to S-MDMA” value is given as “longer half-life”. Besides, the evidence of neurotoxicity result in data set [10] was “did not show evidence of neurotoxicity”. Besides, in data set [11], the hyperthermia or hypothermia entry is “No noticeable hyperthermia or hypothermia” and the jaw clenching result was “No incidence of jaw clenching”. In addition, in data set [11] (Subject A), the “onset of noticeable effects” value is “around 40 minutes” and the “time of peak of the experience” value is listed as “around two hours after ingestion”. The blood pressure result in data set [11] (monitor of low precision, result inconclusive) is on record as “increased for a short period”. Also, the heart rate in [11] (short period, from 85 resting) is reported as 115-125. For the same compound, the “No adverse effect level (NOAEL)” value in data set [8] was “NOAEL: >200 mg/kg”.
